Measured values as given in patent publication US7754946B2, “Stem-regulated, plant defense promoter and uses thereof in tissue-specific expression in monocots” (The Texas A&M University System, priority 2003, dated 2010).

Tested on: JAS
Test: Microarray of JAS cDNA clones after spraying sugarcane plants with defense-inducing agents
Assay type: in vivo
Details: treated v. untreated plant
Description: The 251 cDNA clones used for microarray analysis in Example 1 were further used to assess the effects of defense-inducing agents on the expression of the stem-specific genes.
Total RNA was extracted from wild type sugarcane plants (3 months-old) that were sprayed with the defense-inducing agents jasmonic acid (JA) (25·mu·M in 0.05.percent.Tween 20), methyl-jasmonate (MeJA) (200·mu·M in 0.1.percent.ethanol and 0.05.percent.Tween 20) or salicylic acid (SA) (5 mM in 0.05.percent.Tween 20) for two time periods, 24 and 48 hours. The microarray including 251 cDNAs was probed with fluorescently labeled cDNAs synthesized from 1·mu·g of total amplified RNA. One cDNA probe (e.g. RNA from plant treated with a defense-inducing agent) is labeled with one dye (Cy5), and the second (e.g. RNA from untreated control plant) with another dye (Cy3)
Microarray data was analyzed using GeneSpring analysis software. Data were normalized using an endogenous constitutive gene. The normalized ratio of Cy5 v.

SMILES: CC/C=C\C[C@H]1C(=O)CC[C@@H]1CC(=O)O [JA, jasmonic acid]
- Cy5/Cy3 Ratios (Upregulation) for JAS (clone 2I1, JA 25 μM spray, 24 hours): 0.59
- Cy5/Cy3 Ratios (Upregulation) for JAS (clone 2I1, JA 25 μM spray, 48 hours): 2.10
- Cy5/Cy3 Ratios (Upregulation) for JAS (clone 4Q3, JA 25 μM spray, 24 hours): 0.41
- Cy5/Cy3 Ratios (Upregulation) for JAS (clone 4Q3, JA 25 μM spray, 48 hours): 2.12
- Cy5/Cy3 Ratios (Upregulation) for JAS (clone 5P22, JA 25 μM spray, 24 hours): 0.41
- Cy5/Cy3 Ratios (Upregulation) for JAS (clone 5P22, JA 25 μM spray, 48 hours): 2.10
- Cy5/Cy3 Ratios (Upregulation) for JAS (clone 6H10, JA 25 μM spray, 24 hours): 0.42
- Cy5/Cy3 Ratios (Upregulation) for JAS (clone 6H10, JA 25 μM spray, 48 hours): 2.19
- Cy5/Cy3 Ratios (Upregulation) for JAS (clone 10P7, JA 25 μM spray, 24 hours): 0.59
- Cy5/Cy3 Ratios (Upregulation) for JAS (clone 10P7, JA 25 μM spray, 48 hours): 2.10
- Cy5/Cy3 Ratios (Upregulation) for JAS (clone 12F18, JA 25 μM spray, 24 hours): 0.51
- Cy5/Cy3 Ratios (Upregulation) for JAS (clone 12F18, JA 25 μM spray, 48 hours): 1.64
- Cy5/Cy3 Ratios (Upregulation) for JAS (clone 13F16, JA 25 μM spray, 24 hours): 0.51
- Cy5/Cy3 Ratios (Upregulation) for JAS (clone 13F16, JA 25 μM spray, 48 hours): 2.21
- Cy5/Cy3 Ratios (Upregulation) for JAS (clone 17C11, JA 25 μM spray, 24 hours): 0.35
- Cy5/Cy3 Ratios (Upregulation) for JAS (clone 17C11, JA 25 μM spray, 48 hours): 2.12
- Cy5/Cy3 Ratios (Upregulation) for JAS (clone 18H16, JA 25 μM spray, 24 hours): 1.90
- Cy5/Cy3 Ratios (Upregulation) for JAS (clone 18H16, JA 25 μM spray, 48 hours): 1.40
- Cy5/Cy3 Ratios (Upregulation) for JAS (clone 20F18, JA 25 μM spray, 24 hours): 0.34
- Cy5/Cy3 Ratios (Upregulation) for JAS (clone 20F18, JA 25 μM spray, 48 hours): 2.00
- Cy5/Cy3 Ratios (Upregulation) for JAS (clone 20G16, JA 25 μM spray, 24 hours): 0.85
- Cy5/Cy3 Ratios (Upregulation) for JAS (clone 20G16, JA 25 μM spray, 48 hours): 1.30
- Cy5/Cy3 Ratios (Upregulation) for JAS (clone 24G4, JA 25 μM spray, 24 hours): 0.41
- Cy5/Cy3 Ratios (Upregulation) for JAS (clone 24G4, JA 25 μM spray, 48 hours): 1.14
- Cy5/Cy3 Ratios (Upregulation) for JAS (clone 25K14, JA 25 μM spray, 24 hours): 1.73
- Cy5/Cy3 Ratios (Upregulation) for JAS (clone 25K14, JA 25 μM spray, 48 hours): 1.65

SMILES: CC/C=C\CC1C(=O)CCC1CC(=O)OC (stereo not shown) [MeJA, methyl-jasmonate]
- Cy5/Cy3 Ratios (Upregulation) for JAS (clone 2I1, MeJA 200 μM spray, 24 hours): 0.27
- Cy5/Cy3 Ratios (Upregulation) for JAS (clone 2I1, MeJA 200 μM spray, 48 hours): 0.22
- Cy5/Cy3 Ratios (Upregulation) for JAS (clone 4Q3, MeJA 200 μM spray, 24 hours): 0.15
- Cy5/Cy3 Ratios (Upregulation) for JAS (clone 4Q3, MeJA 200 μM spray, 48 hours): 0.18
- Cy5/Cy3 Ratios (Upregulation) for JAS (clone 5P22, MeJA 200 μM spray, 24 hours): 0.16
- Cy5/Cy3 Ratios (Upregulation) for JAS (clone 5P22, MeJA 200 μM spray, 48 hours): 0.17
- Cy5/Cy3 Ratios (Upregulation) for JAS (clone 6H10, MeJA 200 μM spray, 24 hours): 0.15
- Cy5/Cy3 Ratios (Upregulation) for JAS (clone 6H10, MeJA 200 μM spray, 48 hours): 0.19
- Cy5/Cy3 Ratios (Upregulation) for JAS (clone 10P7, MeJA 200 μM spray, 24 hours): 0.13
- Cy5/Cy3 Ratios (Upregulation) for JAS (clone 10P7, MeJA 200 μM spray, 48 hours): 0.15
- Cy5/Cy3 Ratios (Upregulation) for JAS (clone 12F18, MeJA 200 μM spray, 24 hours): 0.20
- Cy5/Cy3 Ratios (Upregulation) for JAS (clone 12F18, MeJA 200 μM spray, 48 hours): 0.21
- Cy5/Cy3 Ratios (Upregulation) for JAS (clone 13F16, MeJA 200 μM spray, 24 hours): 0.25
- Cy5/Cy3 Ratios (Upregulation) for JAS (clone 13F16, MeJA 200 μM spray, 48 hours): 0.34
- Cy5/Cy3 Ratios (Upregulation) for JAS (clone 17C11, MeJA 200 μM spray, 24 hours): 0.17
- Cy5/Cy3 Ratios (Upregulation) for JAS (clone 17C11, MeJA 200 μM spray, 48 hours): 0.17
- Cy5/Cy3 Ratios (Upregulation) for JAS (clone 18H16, MeJA 200 μM spray, 24 hours): 3.00
- Cy5/Cy3 Ratios (Upregulation) for JAS (clone 18H16, MeJA 200 μM spray, 48 hours): 0.79
- Cy5/Cy3 Ratios (Upregulation) for JAS (clone 20F18, MeJA 200 μM spray, 24 hours): 0.16
- Cy5/Cy3 Ratios (Upregulation) for JAS (clone 20F18, MeJA 200 μM spray, 48 hours): 0.18
- Cy5/Cy3 Ratios (Upregulation) for JAS (clone 20G16, MeJA 200 μM spray, 24 hours): 0.50
- Cy5/Cy3 Ratios (Upregulation) for JAS (clone 20G16, MeJA 200 μM spray, 48 hours): 0.49
- Cy5/Cy3 Ratios (Upregulation) for JAS (clone 24G4, MeJA 200 μM spray, 24 hours): 0.37
- Cy5/Cy3 Ratios (Upregulation) for JAS (clone 24G4, MeJA 200 μM spray, 48 hours): 0.41
- Cy5/Cy3 Ratios (Upregulation) for JAS (clone 25K14, MeJA 200 μM spray, 24 hours): 3.07
- Cy5/Cy3 Ratios (Upregulation) for JAS (clone 25K14, MeJA 200 μM spray, 48 hours): 1.02

SMILES: O=C(O)c1ccccc1O [SA, salicylic acid]
- Cy5/Cy3 Ratios (Upregulation) for JAS (clone 2I1, SA 5 mM spray, 48 hours): 16.92
- Cy5/Cy3 Ratios (Upregulation) for JAS (clone 4Q3, SA 5 mM spray, 48 hours): 15.26
- Cy5/Cy3 Ratios (Upregulation) for JAS (clone 5P22, SA 5 mM spray, 48 hours): 18.08
- Cy5/Cy3 Ratios (Upregulation) for JAS (clone 6H10, SA 5 mM spray, 48 hours): 19.22
- Cy5/Cy3 Ratios (Upregulation) for JAS (clone 10P7, SA 5 mM spray, 48 hours): 20.96
- Cy5/Cy3 Ratios (Upregulation) for JAS (clone 12F18, SA 5 mM spray, 48 hours): 17.54
- Cy5/Cy3 Ratios (Upregulation) for JAS (clone 17C11, SA 5 mM spray, 48 hours): 18.83
- Cy5/Cy3 Ratios (Upregulation) for JAS (clone 18H16, SA 5 mM spray, 48 hours): 0.70
- Cy5/Cy3 Ratios (Upregulation) for JAS (clone 20F18, SA 5 mM spray, 48 hours): 19.54
- Cy5/Cy3 Ratios (Upregulation) for JAS (clone 20G16, SA 5 mM spray, 48 hours): 13.81
- Cy5/Cy3 Ratios (Upregulation) for JAS (clone 24G4, SA 5 mM spray, 48 hours): 7.73
- Cy5/Cy3 Ratios (Upregulation) for JAS (clone 25K14, SA 5 mM spray, 48 hours): 0.70
